Measured values: ChEMBL document CHEMBL5375952, “Discovery of Novel 8-Hydroxyquinoline Derivatives with Potent In Vitro and In Vivo Antifungal Activity” (J Med Chem, 2023)
≈ marks a conversion by molar mass, not a printed value.

Columns and labels:
[1] = test system: Candida albicans; assay: Antifungal activity against Candida albicans SC5314 assessed as fungal growth inhibition incubated for 48 hrs by broth microdilution method; format: functional
[2] = test system: Candida albicans; assay: Antifungal activity against Candida albicans 21 assessed as fungal growth inhibition incubated for 48 hrs by broth microdilution method; format: functional
[3] = test system: Candida albicans; assay: Antifungal activity against Candida albicans 22 assessed as fungal growth inhibition incubated for 48 hrs by broth microdilution method; format: functional
[4] = test system: Nakaseomyces glabratus; assay: Antifungal activity against Candida glabrata 201 assessed as fungal growth inhibition incubated for 48 hrs by broth microdilution method; format: functional
[5] = test system: Nakaseomyces glabratus; assay: Antifungal activity against Candida glabrata 202 assessed as fungal growth inhibition incubated for 48 hrs by broth microdilution method; format: functional
[6] = test system: Nakaseomyces glabratus; assay: Antifungal activity against Candida glabrata 205 assessed as fungal growth inhibition incubated for 48 hrs by broth microdilution method; format: functional
[7] = test system: Pichia kudriavzevii; assay: Antifungal activity against Candida krusei 68 assessed as fungal growth inhibition incubated for 48 hrs by broth microdilution method; format: functional
[8] = test system: Pichia kudriavzevii; assay: Antifungal activity against Candida krusei 69 assessed as fungal growth inhibition incubated for 48 hrs by broth microdilution method; format: functional
[9] = test system: Pichia kudriavzevii; assay: Antifungal activity against Candida krusei 477 assessed as fungal growth inhibition incubated for 48 hrs by broth microdilution method; format: functional
[10] = test system: Candida parapsilosis; assay: Antifungal activity against Candida parapsilosis 105 assessed as fungal growth inhibition incubated for 48 hrs by broth microdilution method; format: functional; conditions: Lodderomyces parapsilosis
[11] = test system: Candida parapsilosis; assay: Antifungal activity against Candida parapsilosis 107 assessed as fungal growth inhibition incubated for 48 hrs by broth microdilution method; format: functional; conditions: Lodderomyces parapsilosis
[12] = test system: Candida parapsilosis; assay: Antifungal activity against Candida parapsilosis 125 assessed as fungal growth inhibition incubated for 48 hrs by broth microdilution method; format: functional; conditions: Lodderomyces parapsilosis
[13] = test system: Candida tropicalis; assay: Antifungal activity against Candida tropicalis 176 assessed as fungal growth inhibition incubated for 48 hrs by broth microdilution method; format: functional
[14] = test system: Candida tropicalis; assay: Antifungal activity against Candida tropicalis 178 assessed as fungal growth inhibition incubated for 48 hrs by broth microdilution method; format: functional
[15] = test system: Candida tropicalis; assay: Antifungal activity against Candida tropicalis 184 assessed as fungal growth inhibition incubated for 48 hrs by broth microdilution method; format: functional
[16] = test system: Cryptococcus neoformans; assay: Antifungal activity against Cryptococcus neoformans 443 assessed as fungal growth inhibition incubated for 48 hrs by broth microdilution method; format: functional
[17] = test system: Cryptococcus neoformans; assay: Antifungal activity against Cryptococcus neoformans 444 assessed as fungal growth inhibition incubated for 48 hrs by broth microdilution method; format: functional
[18] = test system: Cryptococcus neoformans; assay: Antifungal activity against Cryptococcus neoformans 445 assessed as fungal growth inhibition incubated for 48 hrs by broth microdilution method; format: functional
[19] = test system: Aspergillus fumigatus; assay: Antifungal activity against Aspergillus fumigatus 023-12 assessed as fungal growth inhibition incubated for 48 hrs by broth microdilution method; format: functional
[20] = test system: Aspergillus fumigatus; assay: Antifungal activity against Aspergillus fumigatus A assessed as fungal growth inhibition incubated for 48 hrs by broth microdilution method; format: functional
[21] = test system: Aspergillus fumigatus; assay: Antifungal activity against Aspergillus fumigatus 7544 assessed as fungal growth inhibition incubated for 48 hrs by broth microdilution method; format: functional
[22] = Cytotoxicity against human Caco-2 cells assessed as cell growth inhibition incubated for 24 hrs by CCK8 assay; format: toxicity, cell-based

Row | MIC [1] [µg/mL] | MIC [2] [µg/mL] | MIC [3] [µg/mL] | SMILES | also measured
1 | 0.5 (≈ 1.34 µM) | 0.25 (≈ 0.671 µM) | 0.5 (≈ 1.34 µM) | CC(C)C(=O)NC(c1ccc(F)c(Cl)c1)c1ccc2cccnc2c1O (configuration not stated) | –
2 | 1 (≈ 2.57 µM) | 0.25 (≈ 0.642 µM) | 1 (≈ 2.57 µM) | CC(C)C(=O)NC(c1ccc(Cl)c(Cl)c1)c1ccc2cccnc2c1O (configuration not stated) | –
3 | 8 (≈ 24.5 µM) | 8 (≈ 24.5 µM) | 8 (≈ 24.5 µM) | CC(=O)NC(c1ccccc1Cl)c1ccc2cccnc2c1O (configuration not stated) | –
4 | 0.25 (≈ 0.73 µM) | 0.5 (≈ 1.46 µM) | 0.125 (≈ 0.365 µM) | CC(=O)NC(c1ccc2ccccc2c1)c1ccc2cccnc2c1O (configuration not stated) | –
5 | 0.5 (≈ 1.56 µM) | 0.5 (≈ 1.56 µM) | 0.5 (≈ 1.56 µM) | CCC(=O)NC(c1ccc(C)cc1)c1ccc2cccnc2c1O (configuration not stated) | –
6 | 0.125 (≈ 0.346 µM) | 0.5 (≈ 1.38 µM) | 0.5 (≈ 1.38 µM) | CC(=O)NC(c1ccc(Cl)cc1Cl)c1ccc2cccnc2c1O (configuration not stated) | –
7 | 0.5 (≈ 1.17 µM) | 0.5 (≈ 1.17 µM) | 0.5 (≈ 1.17 µM) | COc1ccc(C(NC(=O)Cc2ccccc2)c2ccc3cccnc3c2O)cc1OC (configuration not stated) | –
8 | 4 (≈ 11.4 µM) | 4 (≈ 11.4 µM) | 4 (≈ 11.4 µM) | COc1ccc(C(NC(C)=O)c2ccc3cccnc3c2O)c(OC)c1 (configuration not stated) | –
9 | 4 (≈ 11.9 µM) | 8 (≈ 23.8 µM) | 16 (≈ 47.6 µM) | CCC(=O)NC(c1ccccc1OC)c1ccc2cccnc2c1O (configuration not stated) | –
10 | 2 (≈ 5.02 µM) | 0.5 (≈ 1.25 µM) | 1 (≈ 2.51 µM) | COc1ccc(C(NC(=O)Cc2ccccc2)c2ccc3cccnc3c2O)cc1 (configuration not stated) | –
11 | 2 (≈ 5.64 µM) | 2 (≈ 5.64 µM) | 2 (≈ 5.64 µM) | CC(C)C(=O)NC(c1ccccc1Cl)c1ccc2cccnc2c1O (configuration not stated) | –
12 | 0.125 (≈ 0.314 µM) | < 0.125 | 0.125 (≈ 0.314 µM) | COc1ccccc1C(NC(=O)Cc1ccccc1)c1ccc2cccnc2c1O (configuration not stated) | MIC [4]: 0.125 µg/mL (≈ 0.314 µM); MIC [5]: 0.125 µg/mL (≈ 0.314 µM); MIC [6]: 0.5 µg/mL (≈ 1.25 µM); MIC [7]: 0.125 µg/mL (≈ 0.314 µM); MIC [8]: 0.25 µg/mL (≈ 0.627 µM); MIC [9]: 0.25 µg/mL (≈ 0.627 µM); MIC [10]: 0.125 µg/mL (≈ 0.314 µM); MIC [11]: 0.125 µg/mL (≈ 0.314 µM); MIC [12]: 0.125 µg/mL (≈ 0.314 µM); MIC [13]: > 64 µg/mL; MIC [14]: > 64 µg/mL; MIC [15]: > 64 µg/mL; MIC [16]: 0.125 µg/mL (≈ 0.314 µM); MIC [17]: 0.125 µg/mL (≈ 0.314 µM); MIC [18]: 0.5 µg/mL (≈ 1.25 µM); MIC [19]: 2 µg/mL (≈ 5.02 µM); MIC [20]: 2 µg/mL (≈ 5.02 µM); MIC [21]: 2 µg/mL (≈ 5.02 µM); IC50 at 24 h [22]: > 64 µg/mL

The remaining lines, values behind:

Row | SMILES | MIC [1] [µg/mL] | MIC [2] [µg/mL] | MIC [3] [µg/mL] | also measured
13 | CC(C)C(=O)NC(c1ccc(Cl)cc1)c1ccc2cccnc2c1O (configuration not stated) | 1 (≈ 2.82 µM) | 0.25 (≈ 0.705 µM) | 0.5 (≈ 1.41 µM) | –
14 | CCCC(=O)NC(c1ccccc1)c1ccc2cccnc2c1O (configuration not stated) | 1 (≈ 3.12 µM) | 1 (≈ 3.12 µM) | 1 (≈ 3.12 µM) | –
15 | CCC(=O)NC(c1cccc([N+](=O)[O-])c1)c1ccc2cccnc2c1O (configuration not stated) | 4 (≈ 11.4 µM) | 4 (≈ 11.4 µM) | 4 (≈ 11.4 µM) | –
16 | CC(C)C(=O)NC(c1ccc(Br)cc1)c1ccc2cccnc2c1O (configuration not stated) | 2 (≈ 5.01 µM) | 0.5 (≈ 1.25 µM) | 1 (≈ 2.5 µM) | –
17 | O=C(Cc1ccccc1)NC(c1ccc(OC(F)(F)F)cc1)c1ccc2cccnc2c1O (configuration not stated) | 2 (≈ 4.42 µM) | 1 (≈ 2.21 µM) | 2 (≈ 4.42 µM) | –
18 | CCN(CC)c1ccc(C(NC(=O)Cc2ccccc2)c2ccc3cccnc3c2O)cc1 (configuration not stated) | 0.5 (≈ 1.14 µM) | 1 (≈ 2.28 µM) | 2 (≈ 4.55 µM) | –
19 | O=C(Cc1ccccc1)NC(c1ccc(Br)cc1)c1ccc2cccnc2c1O (configuration not stated) | 2 (≈ 4.47 µM) | 1 (≈ 2.24 µM) | 1 (≈ 2.24 µM) | –
20 | O=C(Cc1ccccc1)NC(c1ccc(C(F)(F)F)cc1)c1ccc2cccnc2c1O (configuration not stated) | 1 (≈ 2.29 µM) | 1 (≈ 2.29 µM) | 2 (≈ 4.58 µM) | –
21 | CSc1ccc(C(NC(=O)C(C)C)c2ccc3cccnc3c2O)cc1 (configuration not stated) | 2 (≈ 5.46 µM) | 1 (≈ 2.73 µM) | 2 (≈ 5.46 µM) | –
22 | CC(C)C(=O)NC(c1cccc([N+](=O)[O-])c1)c1ccc2cccnc2c1O (configuration not stated) | 0.25 (≈ 0.684 µM) | 0.25 (≈ 0.684 µM) | 0.5 (≈ 1.37 µM) | –
23 | Cc1ccc(C(NC(=O)CC(C)C)c2ccc3cccnc3c2O)cc1 (configuration not stated) | 0.125 (≈ 0.359 µM) | 0.125 (≈ 0.359 µM) | 0.125 (≈ 0.359 µM) | MIC [4]: 0.125 µg/mL (≈ 0.359 µM); MIC [5]: 0.125 µg/mL (≈ 0.359 µM); MIC [6]: 0.125 µg/mL (≈ 0.359 µM); MIC [7]: 0.125 µg/mL (≈ 0.359 µM); MIC [8]: 0.125 µg/mL (≈ 0.359 µM); MIC [9]: 0.125 µg/mL (≈ 0.359 µM); MIC [10]: 0.032 µg/mL (≈ 0.0918 µM); MIC [11]: 0.125 µg/mL (≈ 0.359 µM); MIC [12]: 0.125 µg/mL (≈ 0.359 µM); MIC [13]: 0.032 µg/mL (≈ 0.0918 µM); MIC [14]: 0.032 µg/mL (≈ 0.0918 µM); MIC [15]: 0.125 µg/mL (≈ 0.359 µM); MIC [16]: 0.016 µg/mL (≈ 0.0459 µM); MIC [17]: 0.016 µg/mL (≈ 0.0459 µM); MIC [18]: 0.016 µg/mL (≈ 0.0459 µM); MIC [19]: 0.25 µg/mL (≈ 0.717 µM); MIC [20]: 0.5 µg/mL (≈ 1.43 µM); MIC [21]: 0.5 µg/mL (≈ 1.43 µM); IC50 at 24 h [22]: 32 µg/mL (≈ 91.8 µM)
